What was measured:
[1] = system: oxazolone-induced mouse atopic dermatitis model; test: Oxazolone-induced mouse atopic dermatitis model; type: in vivo; conditions: BALB/c mice; 10 mg/kg orally once daily for 15 days from the sensitization day; vs vehicle, Student's t-test P<0.05
Description: Using increase in the ear thickness as an index of exacerbation of symptoms, the effect of the cyclic amine derivative (I) or a pharmacologically acceptable salt thereof in an oxazolone-induced mouse atopic dermatitis model was evaluated. The oxazolone-induced mouse atopic dermatitis model was prepared by a partially modified method by Nakajima et al. (Journal of Investigative Dermatology, 2014, Vol. 134, p. 2122-2130).
BALB/c mice (female, 7 weeks old) (Charles River Laboratories Japan, Inc.) were used at 8 or 9 weeks old after preliminary breeding. To the back of the mice, 25 μL of a 3 w/v % oxazolone solution dissolved in ethanol was applied to sensitize the mice. Every other day from 5 days to 13 days after the sensitization, 10 μL each of a 0.6 w/v % oxazolone solution dissolved in ethanol was applied to both sides of the right auricle of the sensitized mice to induce inflammation.
The test compound at a dose of 10 mg/kg was administered to the mice once daily for 15 days from the sensitization day to 14 days after sensitization. As the test compound, the compound of Example 20, the compound of Example 29, and the compound of Example 57 were used. The compound of Example 20, the compound of Example 29, and the compound of Example 57 were suspended in a 0.5 w/v % methylcellulose solution and orally administered. The group in which the compound of Example 20 was administered to mice was defined as the Example-20 compound administration group, the group in which the compound of Example 29 was administered was defined as the Example-29 compound administration group, and the group in which the compound of Example 57 was administered was defined as the Example-57 compound administration group. In the vehicle administration group, a vehicle of each test compound (0.5 w/v % methylcellulose solution) was similarly administered.
The right ear thickness before application of the oxazolone solution (before sensitization) on the sensitization day and the right ear thickness on the next day of final induction were measured with a digital micrometer (Mitutoyo Corporation). […]

[2] = system: DNFB-induced mouse allergic dermatitis model; test: DNFB-induced mouse allergic dermatitis model; type: in vivo; conditions: BALB/c mice; 10 mg/kg orally one hour before induction; 24th hour after induction; vs vehicle, Student's t-test P<0.05
Description: Using increase in the ear swelling rate as an index of exacerbation of symptoms, the effect of the cyclic amine derivative (I) or a pharmacologically acceptable salt thereof in a DNFB-induced mouse allergic dermatitis model was evaluated. The DNFB-induced mouse allergic dermatitis model was prepared by a partially modified method by Curzytek et al. (Pharmacological Reports, 2013, Vol. 65, p. 123′7-1246).
BALB/c mice (female, 6 weeks old) (Charles River Laboratories Japan, Inc.) were used at 7 weeks old after preliminary breeding. To the back of the mice, 25 μL of a 0.5 v/v % DNFB solution dissolved in acetone:olive oil (4:1) was applied. The next day, the same operation was repeated to sensitize the mice. Four days after the sensitization, 10 μL each of a 0.2 v/v % DNFB solution dissolved in acetone:olive oil (4:1) was applied to both sides of the right auricle of the sensitized mice to induce inflammation.
One hour before induction, the compound of Example 20, the compound of Example 29, or the compound of Example 57 was administered at a dose of 10 mg/kg to the mice. The compound of Example 20, the compound of Example 29, and the compound of Example 57 were suspended in a 0.5 w/v % methylcellulose solution and orally administered. The group in which the compound of Example 20 was administered to mice was defined as the Example-20 compound administration group, the group in which the compound of Example 29 was administered was defined as the Example-29 compound administration group, and the group in which the compound of Example 57 was administered was defined as the Example-57 compound administration group. […]
The right ear thickness before application of the DNFB solution (before induction) on the induction day and the right ear thickness at the 24th hour after induction were measured with a digital micrometer (Mitutoyo Corporation). The swelling rate of the auricle was calculated by Formula 3 and used as an index of the drug efficacy evaluation. […]

Question: With `CC(=O)N1CCCC[C@@H]1C(=O)Nc1ccc(-c2ccccc2OC(F)(F)F)c(Cl)c1` [Example 20, (R)-1-acetyl-N-(2-chloro-2′-(trifluoromethoxy)-[1,1′-biphenyl]-4-yl)piperidine-2-carboxamide] as the compound, how does the “change in the ear thickness (right ear, next day of final induction − before sensitization)” value (shortened to “change in the ear thickness”) [1] read?
Answer: The value was “statistically significantly suppressed”.

Question: What about the “ear swelling rate (%)” value [2] of the same compound?
Answer: Its value is “statistically significantly suppressed”.

Question: Which “change in the ear thickness” value [1] does the source give for `CN(CC(=O)N1CCCC[C@@H]1C(=O)Nc1ccc(-c2ccccc2OC(F)(F)F)c(Cl)c1)S(C)(=O)=O` [Example 29, (R)-N-(2-chloro-2′-(trifluoromethoxy)-[1,1′-biphenyl]-4-yl)-1-(2-(N-methylmethylsulfonamide)acetyl)piperidine-2-carboxamide] here?
Answer: Its value is “statistically significantly suppressed”.

Question: And the “ear swelling rate (%)” value [2]?
Answer: Its value is “statistically significantly suppressed”.

Question: How did the “change in the ear thickness” value [1] turn out when `O=C(Nc1ccc(-c2ccccc2OC(F)(F)F)c(Cl)c1)[C@H]1CCCCN1C(=O)Cn1cnnn1` [Example 57, (R)-1-(2-(1H-tetrazol-1-yl)acetyl)-N-(2-chloro-2′-(trifluoromethoxy)-[1,1′-biphenyl]-4-yl)piperidine-2-carboxamide] was run?
Answer: Its value is “statistically significantly suppressed”.

Question: And the “ear swelling rate (%)” value [2]?
Answer: The value was “statistically significantly suppressed”.

Source: patent US10364222B2, “Cyclic amine derivative and medical use thereof” (Toray Industries, Inc., priority 2016, dated 2019)
